This passage reports IC50 results from US20240317735A1, “HYDROISOQUINOLINE OR HYDRONAPHTHYRIDINE COMPOUNDS FOR THE TREATMENT OF AUTOIMMUNE DISEASE” (Hoffmann-La Roche Inc., priority 2020, published 2024).

The assay addresses T1, human TLR7 (Homo sapiens, UniProt Q9NYK1).
T1 construct: host or cells: HEK293 (HEK-Blue hTLR7)
T1 sequence (Q9NYK1 27-1049): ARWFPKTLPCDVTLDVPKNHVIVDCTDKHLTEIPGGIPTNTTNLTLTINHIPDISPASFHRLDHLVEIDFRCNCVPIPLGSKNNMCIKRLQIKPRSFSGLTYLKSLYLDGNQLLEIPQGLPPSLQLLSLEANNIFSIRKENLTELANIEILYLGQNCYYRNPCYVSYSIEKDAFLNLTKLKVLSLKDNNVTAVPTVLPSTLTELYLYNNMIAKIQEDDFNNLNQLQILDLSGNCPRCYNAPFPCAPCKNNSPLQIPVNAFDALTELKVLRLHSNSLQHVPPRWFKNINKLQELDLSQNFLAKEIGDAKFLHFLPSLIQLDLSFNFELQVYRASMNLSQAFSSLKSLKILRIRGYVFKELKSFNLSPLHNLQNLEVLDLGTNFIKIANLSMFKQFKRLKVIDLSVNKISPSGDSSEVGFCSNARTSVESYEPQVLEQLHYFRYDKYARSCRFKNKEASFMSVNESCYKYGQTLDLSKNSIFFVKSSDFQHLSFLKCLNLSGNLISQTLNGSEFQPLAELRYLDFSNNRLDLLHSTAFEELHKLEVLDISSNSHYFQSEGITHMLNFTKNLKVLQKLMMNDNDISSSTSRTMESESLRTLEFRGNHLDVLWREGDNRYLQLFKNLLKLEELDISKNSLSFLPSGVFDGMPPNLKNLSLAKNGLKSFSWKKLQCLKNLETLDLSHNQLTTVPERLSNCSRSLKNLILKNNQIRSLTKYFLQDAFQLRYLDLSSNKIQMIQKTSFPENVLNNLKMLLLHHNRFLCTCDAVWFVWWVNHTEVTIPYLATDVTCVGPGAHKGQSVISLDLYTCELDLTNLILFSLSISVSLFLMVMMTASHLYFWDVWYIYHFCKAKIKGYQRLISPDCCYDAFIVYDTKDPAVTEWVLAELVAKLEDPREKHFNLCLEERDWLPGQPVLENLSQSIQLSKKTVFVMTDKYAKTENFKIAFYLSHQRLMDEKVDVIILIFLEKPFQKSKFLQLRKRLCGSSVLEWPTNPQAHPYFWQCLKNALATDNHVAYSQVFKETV
The assay is described as follows: HEK293-Blue-hTLR-7 cells assay (SEAP reporter, R848 stimulation). The class given is cell-based. The following applies: HEK293-Blue-hTLR7 cells, R848, 20 hrs; read-out: HEK/hTLR7 IC50. How it is done: The following tests were carried out in order to determine the activity of the compounds of formula (I) and (Ia) in HEK293-Blue-hTLR-7/8/9 cells assay.
A stable HEK293-Blue-hTLR-7 cell line was purchased from InvivoGen (Cat. #: hkb-htlr7, San Diego, California, USA). These cells were originally designed for studying the stimulation of human TLR7 by monitoring the activation of NF-κB. A SEAP (secreted embryonic alkaline phosphatase) reporter gene was placed under the control of the IFN-β minimal promoter fused to five NF-κB and AP-1-binding sites. The SEAP was induced by activating NF-κB and AP-1 via stimulating HEK-Blue hTLR7 cells with TLR7 ligands. Therefore the reporter expression w % as declined by TLR7 antagonist under the stimulation of a ligand, such as R848 (Resiquimod), for incubation of 20 hrs. The cell culture supernatant SEAP reporter activity was determined using QUANTI-Blue™ kit (Cat. #: rep-qb1, Invivogen, San Diego, Ca, USA) at a wavelength of 640 nm, a detection medium that turns purple or blue in the presence of alkaline phosphatase.
HEK293-Blue-hTLR7 cells were incubated at a density of 250,000˜450,000 cells/mL in a volume of 170 μL in a 96-well plate in Dulbecco's Modified Eagle's medium (DMEM) containing 4.5 g/L glucose, 50 U/mL penicillin, […], […] Normocin, 2 mM L-glutamine, 10% (v/v) heat-inactivated fetal bovine serum with addition of 20 μL test compound in a serial dilution in the presence of final DMSO at 1% and 10 μL of 20 uM R848 in above DMEM, perform incubation under 37° C. in a C02 incubator for 20 hrs. Then 20 μL of the supernatant from each well was incubated with 180 μL Quanti-blue substrate solution at 37° C. for 2 hrs and the absorbance was read at 620˜655 nm using a spectrophotometer. The signaling pathway that TLR7 activation leads to downstream NF-κB activation has been widely accepted, and therefore similar reporter assay was modified for evaluating TLR7 antagonist.
`Cc1cc(N2Cc3ccc(N4C[C@@H](F)[C@@H](N)C4)nc3[C@@H](C)C2)c2cnn(C)c2n1` [Example 69, (3S,4R)-4-fluoro-1-[(8S)-6-(1,6-dimethylpyrazolo[3,4-b]pyridin-4-yl)-8-methyl-7,8-dihydro-5H-1,6-naphthyridin-2-yl]pyrrolidin-3-amine]: the IC50 was 30 nM.

Regarding `C[C@H]1CN(c2ccnc3c2cnn3C)Cc2ccc(N3CCC(N4CCNCC4)CC3)cc21` [Example 10, (4R)-4-methyl-2-(1-methylpyrazolo[3,4-b]pyridin-4-yl)-6-(4-piperazin-1-yl-1-piperidyl)-3,4-dihydro-1H-isoquinoline], the IC50 was 1 nM.

With `C[C@H]1CN(c2ccnc3c2cnn3C)Cc2ccc(N3CCNC(CO)C3)cc21` (stereo partly drawn) [Example 49, [4-[(4R)-4-methyl-2-(1-methylpyrazolo[3,4-b]pyridin-4-yl)-3,4-dihydro-1H-isoquinolin-6-yl]piperazin-2-yl]methanol], the IC50 was found to be 5 nM.

For `C[C@H]1CN(c2ccnc3c2cnn3C)Cc2ccc(N3CCC(N4CC[C@@H](N)[C@H](O)C4)CC3)cc21` [Example 29, trans-4-amino-1-[1-[(4R)-4-methyl-2-(1-methylpyrazolo[3,4-b]pyridin-4-yl)-3,4-dihydro-1H-isoquinolin-6-yl]-4-piperidyl]piperidin-3-ol], the IC50 was 9 nM.

For the compound `Cc1cc(N2Cc3cnc(N4CC[C@@H](N)[C@H](F)C4)cc3[C@@H](C)C2)c2cnn(C)c2n1` [Example 80, (3R,4R)-3-fluoro-1-[(5R)-7-(1,6-dimethylpyrazolo[3,4-b]pyridin-4-yl)-5-methyl-6,8-dihydro-5H-2,7-naphthyridin-3-yl]piperidin-4-amine], the IC50 is 12 nM.

Take `C[C@H]1CN(c2ccnc3c2cnn3C)Cc2ccc(N3CCN[C@H](CO)C3)cc21` [Example 51, [(2S)-4-[(4R)-4-methyl-2-(1-methylpyrazolo[3,4-b]pyridin-4-yl)-3,4-dihydro-1H-isoquinolin-6-yl]piperazin-2-yl]methanol]: the IC50 was 9 nM.

Consider `C[C@H]1CN(c2ccnc3c2cnn3C)Cc2ccc(OC[C@@H]3CNCCN3C)cc21` [Example 44, (4R)-4-methyl-2-(1-methylpyrazolo[3,4-b]pyridin-4-yl)-6-[[(2S)-1-methylpiperazin-2-yl]methoxy]-3,4-dihydro-1H-isoquinoline], for which the IC50 worked out at 15 nM.

Regarding `CCn1ncc2c(N3Cc4ccc(N5CCNCC5)cc4[C@@H](C)C3)ccnc21` [Example 22, (4R)-2-(1-ethylpyrazolo[3,4-b]pyridin-4-yl)-4-methyl-6-piperazin-1-yl-3,4-dihydro-1H-isoquinoline], the IC50 was found to be 10 nM.

Regarding `CO[C@@H]1CN(c2ccc3c(c2)[C@@H](C)CN(c2ccnc4c2cnn4C)C3)C[C@H]1N` [Example 20, (3R,4R)-4-methoxy-1-[(4R)-4-methyl-2-(1-methylpyrazolo[3,4-b]pyridin-4-yl)-3,4-dihydro-1H-isoquinolin-6-yl]pyrrolidin-3-amine], the IC50 is 3 nM.

With `C[C@H]1CN(c2ccnc3c2cnn3C)Cc2ccc(N3CCN[C@@H](CO)C3)cc21` [Example 50, [(2R)-4-[(4R)-4-methyl-2-(1-methylpyrazolo[3,4-b]pyridin-4-yl)-3,4-dihydro-1H-isoquinolin-6-yl]piperazin-2-yl]methanol], the IC50 is 10 nM.

Consider `C[C@H]1CN(c2ccnc3c2cnn3C)Cc2ccc(N3CC4(CCNC4)OC3=O)cc21` (stereo partly drawn) [Example 35, 3-[(4R)-4-methyl-2-(1-methylpyrazolo[3,4-b]pyridin-4-yl)-3,4-dihydro-1H-isoquinolin-6-yl]-1-oxa-3,7-diazaspiro[4.4]nonan-2-one], for which the IC50 amounted to 24 nM.

In the case of `Cc1cc(N2Cc3ccc(N4CCC(C)(N)CC4)nc3[C@@H](C)C2)c2cnn(C)c2n1` [Example 59, 4-methyl-1-[(8S)-6-(1,6-dimethylpyrazolo[3,4-b]pyridin-4-yl)-8-methyl-7,8-dihydro-5H-1,6-naphthyridin-2-yl]piperidin-4-amine], the IC50 came out at 2 nM.

For `Cc1cc(N2Cc3ccc(N4CCN(C)CC4)nc3[C@@H](C)C2)c2cnn(C)c2n1` [Example 67, (8S)-6-(1,6-dimethylpyrazolo[3,4-b]pyridin-4-yl)-8-methyl-2-(4-methylpiperazin-1-yl)-7,8-dihydro-5H-1,6-naphthyridine], the IC50 was 11 nM.

On to `Cc1cc(N2Cc3ccc(N4CC5(CNCCO5)C4)nc3[C@@H](C)C2)c2cnn(C)c2n1` [Example 68, 2-[(8S)-6-(1,6-dimethylpyrazolo[3,4-b]pyridin-4-yl)-8-methyl-7,8-dihydro-5H-1,6-naphthyridin-2-yl]-5-oxa-2,8-diazaspiro[3.5]nonane], for which the IC50 was found to be 17 nM.

For the compound `CO[C@@H]1CN(c2ccc3c(c2)[C@@H](C)CN(c2cc(C)nc4c2cnn4C)C3)C[C@H]1N` [Example 23, (3R,4R)-4-methoxy-1-[(4R)-2-(1,6-dimethylpyrazolo[3,4-b]pyridin-4-yl)-4-methyl-3,4-dihydro-1H-isoquinolin-6-yl]pyrrolidin-3-amine], the IC50 came to 5 nM.

For `Cc1cc(N2Cc3ccc(N4CC5(CNCCO5)C4)cc3[C@@H](C)C2)c2cnn(C)c2n1` [Example 48, 2-[(4R)-2-(1,6-dimethylpyrazolo[3,4-b]pyridin-4-yl)-4-methyl-3,4-dihydro-1H-isoquinolin-6-yl]-5-oxa-2,8-diazaspiro[3.5]nonane], the IC50 came to 13 nM.

Consider `C[C@H]1CN(c2ccnc3c2cnn3C)Cc2ccc(N3CC4(CNCCO4)C3)cc21` [Example 21, 2-[(4R)-4-methyl-2-(1-methylpyrazolo[3,4-b]pyridin-4-yl)-3,4-dihydro-1H-isoquinolin-6-yl]-5-oxa-2,8-diazaspiro[3.5]nonane], for which the IC50 is 7 nM.

For the compound `Cc1cc(N2Cc3ccc(N4CCC(N)CC4)nc3[C@@H](C)C2)c2cnn(C)c2n1` [Example 58, 1-[(8S)-6-(1,6-dimethylpyrazolo[3,4-b]pyridin-4-yl)-8-methyl-7,8-dihydro-5H-1,6-naphthyridin-2-yl]piperidin-4-amine], the IC50 amounted to 2 nM.

Take `C[C@H]1CN(c2ccnc3c2cnn3C)Cc2ccc(OC3CN(C4CCNCC4)C3)cc21` [Example 41, (4R)-4-methyl-2-(1-methylpyrazolo[3,4-b]pyridin-4-yl)-6-[1-(4-piperidyl)azetidin-3-yl]oxy-3,4-dihydro-1H-isoquinoline]: the IC50 came to 7 nM.

In the case of `Cc1cc(N2Cc3cnc(OCCN4CCNCC4)cc3[C@@H](C)C2)c2cnn(C)c2n1` [Example 77, (4R)-2-(1,6-dimethylpyrazolo[3,4-b]pyridin-4-yl)-4-methyl-6-(2-piperazin-1-ylethoxy)-3,4-dihydro-1H-2,7-naphthyridine], the IC50 is 19 nM.

With `CC1CN(c2ccnc3c2cnn3C)Cc2ccc(N3CCC4(CCNCC4)CC3)cc21` (stereo not drawn) [Example 4, 3-[4-methyl-2-(1-methylpyrazolo[3,4-b]pyridin-4-yl)-3,4-dihydro-1H-isoquinolin-6-yl]-3,9-diazaspiro[5.5]undecane], the IC50 was determined as 4 nM.
